What was measured:
[1] = biological target: T1, human CB1 (hCB1) receptor (Homo sapiens, UniProt P21554); assay: Inhibition of forskolin-activated cAMP production upon activation of hCB1 (HTRF), CHO-K1 cells; assay type: cell-based; details: forskolin-activated cAMP, pEC50=-log(EC50); for CB1 pEC50: hCB1-CHO-K1 cells; for EC50: CB1 pEC50, hCB1-CHO-K1 cells
T1 construct: expressed in transfected cells; host or cells: CHO-K1
Summary of the method: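 CHO-K1 cells stably expressing hCB1 (20,000/well) were in HBSS stimulation buffer (1 mM IBMX, 10 mM MgCl2, 0.1% BSA, pH 7.4), with 6 μM forskolin in the compound buffer, 30 min at room temperature in the dark. cAMP was read as HTRF 665/620 ratio, normalized to DMSO and CP55490. Outputs were pEC50 and inhibition at 10 μM relative to CP55490.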

[2] = biological target: T2, human CB2 (hCB2) receptor (Homo sapiens, UniProt P34972); assay: Inhibition of forskolin-activated cAMP production upon activation of hCB2 (HTRF), CHO-K1 cells; assay type: cell-based; details: for ratio CB2 agonism over CB1 agonism: Table C-1, selectivity hCB2 over hCB1; for EC50: read-out: CB2 pEC50 (converted)
T2 construct: expressed in transfected cells; host or cells: CHO-K1
T2 sequence (P34972 whole entry): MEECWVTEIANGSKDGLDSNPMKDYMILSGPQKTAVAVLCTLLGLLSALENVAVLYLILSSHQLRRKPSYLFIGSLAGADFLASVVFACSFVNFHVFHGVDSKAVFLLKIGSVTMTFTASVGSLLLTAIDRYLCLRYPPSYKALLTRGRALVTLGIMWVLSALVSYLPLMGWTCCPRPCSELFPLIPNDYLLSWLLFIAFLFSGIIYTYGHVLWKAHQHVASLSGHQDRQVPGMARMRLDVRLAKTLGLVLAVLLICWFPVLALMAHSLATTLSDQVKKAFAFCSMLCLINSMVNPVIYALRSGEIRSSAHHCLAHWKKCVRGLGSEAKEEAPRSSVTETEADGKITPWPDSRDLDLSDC

[3] = hCB2-CHO-K1 cells, forskolin-activated cAMP, pEC50=-log(EC50)

T1 sequence (P21554 whole entry): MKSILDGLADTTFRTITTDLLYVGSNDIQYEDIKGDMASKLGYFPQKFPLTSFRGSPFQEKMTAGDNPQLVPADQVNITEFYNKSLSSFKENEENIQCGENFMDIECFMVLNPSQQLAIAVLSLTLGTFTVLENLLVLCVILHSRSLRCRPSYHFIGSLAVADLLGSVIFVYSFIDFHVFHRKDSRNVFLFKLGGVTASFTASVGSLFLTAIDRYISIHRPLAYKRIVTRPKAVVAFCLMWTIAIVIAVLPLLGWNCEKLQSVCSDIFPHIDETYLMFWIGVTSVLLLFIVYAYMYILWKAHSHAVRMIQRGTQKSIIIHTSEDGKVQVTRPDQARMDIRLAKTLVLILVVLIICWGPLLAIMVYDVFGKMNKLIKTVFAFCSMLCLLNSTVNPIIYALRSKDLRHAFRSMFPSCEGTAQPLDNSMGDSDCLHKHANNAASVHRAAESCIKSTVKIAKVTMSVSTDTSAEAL

Row | Compound | melting point | CB1 pEC50 [1] | ratio CB2 agonism over CB1 agonism [2] | EC50 [2, 3] | EC50 [1] | CB2 pEC50 [2, 3] | ratio CB2 over CB1 agonism ([2]; Table C-3, comparison of art compounds A to E with compounds of the invention)
1 | COCCCOc1cc(S(=O)(=O)c2ccc3c(c2)nc(C(C)(C)C)n3CC2CCOCC2)ccn1 [Co. No. 151] | 106.5 °C | 5.41 | 8035 | 0.479 nM | – | – | –
2 | Cn1ccc(S(=O)(=O)c2ccc3c(c2)nc(C(C)(C)C)n3CC2CCOCC2)cc1=O [Co. No. 69] | 216 °C | – | 398 | 1.74 nM | 692 nM | – | –
3 | CC(C)(C)c1nc2cc(S(=O)(=O)c3cncc(C#N)c3)ccc2n1CC1CCOCC1 [Co. No. 43] | 240 °C | – | 1622 | 1 nM | 1620 nM | – | –
4 | CC(C)(C)c1nc2cc(S(=O)(=O)c3sc(S(=O)(=O)N4CCOCC4)cc3Br)ccc2n1CC1CCOCC1 [Co. No. 65] | 230 °C | – | >3388 | 2.95 nM | > 10000 nM | – | –
5 | CC(C)(C)c1nc2cc(S(=O)(=O)c3cc[n+]([O-])cc3)ccc2n1CC1CCOCC1 [Co. No. 3] | 203 °C | – | – | 1.74 nM | 692 nM | – | –
6 | CC(C)(C)c1nc2cc(S(=O)(=O)c3ccnc(F)c3)ccc2n1CC1CCN(C=O)CC1 [Co. No. 112] | 196.7 °C | – | >2030 | 4.9 nM | > 10000 nM | – | –
7 | CC(=O)NCCc1cc(S(=O)(=O)c2ccc3c(c2)nc(C(C)(C)C)n3CC2CCOCC2)ccn1 [Co. No. 158] | 160.3 °C | 5.08 | 5888 | – | – | 8.85 | –
8 | Cc1cc(S(=O)(=O)c2ccc3c(c2)nc(CC(C)(C)C)n3CC2CCOCC2)cc[n+]1[O-] [Co. No. 102] | 231.7 °C | – | – | 5.01 nM | 9120 nM | – | –
9 | CC(C)(C)c1nc2cc(S(=O)(=O)c3nccc(C(N)=O)n3)ccc2n1CC1CCOCC1 [Co. No. 29] | 220 to 222 °C | – | 417 | 3.16 nM | 1320 nM | – | –
10 | CN(C)CCCOc1cc(S(=O)(=O)c2ccc3c(c2)nc(C(C)(C)C)n3CC2CCOCC2)ccn1 [Co. No. 129] | 119.4 °C | – | 617 | 15.5 nM | 9550 nM | – | –
11 | Cn1cc(S(=O)(=O)c2ccc3c(c2)nc(C(C)(C)C)n3CC2CCOCC2)ccc1=O [Co. No. 28] | 170 °C | – | >3467 | 2.88 nM | > 10000 nM | – | 3467
12 | CC(C)(C)c1nc2cc(S(=O)(=O)c3c(Cl)cncc3Cl)ccc2n1CC1CCOCC1 [Co. No. 84] | 242.9 °C | – | 490 | 1.26 nM | 617 nM | – | –
13 | CC(C)(C)c1nc2cc(S(=O)(=O)c3ccc(C(F)(F)F)cn3)ccc2n1CC1CCOCC1 [Co. No. 99] | 140.5 to 142.3 °C | – | 700 | 1.32 nM | 933 nM | – | –
